Measured values published in patent publication US9163018B2, “Method of treatment of age-related macular degeneration (AMD)” (Prana Biotechnology Limited, priority 2006, dated 2015).

Legend:
[1] = Mice plasma concentration after oral dose; assay type: in vivo; conditions: 30 min to 4 h after single or repeat oral dose of 30 mg/kg
[2] = Toxicity, visual observations in mice; conditions: 30 mg/kg; duration and visual observations
[3] = test system: dityrosine oligomerization; experiment: CuTy: inhibition of dityrosine oligomerization; assay type: biochemical; conditions: referenced to in-house standard (set as 100% inhibition)
[4] = test system: M17 human neuroblastoma cells; experiment: Cytotoxicity, M17 human neuroblastoma cells; assay type: cell-based; conditions: for Cytotox (% viable) M17 cells at 1 μM: 1 μM test compound; for Cytotox (% viable) M17 cells at 10 μM: 10 μM test compound
Procedure: Assay 3. MTS Assay for Cell Viability
Cell viability is determined using the MTS assay. Culture medium is replaced with fresh neurobasal medium plus B27 supplements minus antioxidants. 1/10th volume MTS solution (Cell Titre 96 Aqueous One, Promega Corporation) and incubated at 37° C., 2 hrs. 200 microliter aliquots are measured with a spectrophotometer at 560 nm.

Aβ 1-42 = target: T1, Aβ 1-42 (Homo sapiens, UniProt P05067); experiment: Fluorometric H2O2 assay (inhibition of Abeta H2O2 production); assay type: biochemical; conditions: concentration required to inhibit 50% of Abeta H2O2 production; read-out: H2O2 IC50
T1 construct: The reaction solutions contained Aβ 1-42 at concentrations
T1 sequence (P05067 672-713 limits assumed): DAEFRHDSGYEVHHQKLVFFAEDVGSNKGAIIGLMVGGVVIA
Procedure, shortened: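 Reactions in PBS pH 7.4 at 37 C for 60 min, containing Aβ, copper and test compound. H2O2 output read as fluorescence of HRP-coupled deacetylated DCF. Fluorescence converted to H2O2 concentration via H2O2 standards.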

Aβ deposits = conditions: daily oral gavage 30 mg/kg, 9 weeks, 13-14 months old transgenic mice
[5] = test system: primary cortical neuronal cultured cells; experiment: Test compound cytotoxicity, MTS assay, primary cortical neuronal cultures; assay type: cell-based, mouse; conditions: for Cytotox (% viable) Neuronal cells at 1 μM: 1 μM test compound; for Cytotox (% viable) Neuronal cells at 10 μM: 10 μM test compound
Procedure, shortened: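 Primary cortical neurons were cultured five days in Neurobasal/B27, then exposed on day six to compounds (from 2.5 mM DMSO stocks) in medium minus antioxidants, in triplicate for 4 days at 37° C. Viability was measured by MTS, 2 h at 37° C, absorbance at 560 nm.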

[6] = target: T2, Abeta:Zn (25:50 μM) Synthetic Aggregations (Homo sapiens, UniProt P05067); experiment: Disaggregation of Abeta:Zn synthetic aggregates (ThT fluorescence); assay type: biochemical
T2 construct: PB Compound Mediated Dissolution of Aggregated Abeta 1-42; purchased Keck Laboratory, Yale University School of Medicine
T2 sequence (P05067 672-713 limits assumed): as above
Procedure, shortened: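 ThT signal (excitation 450 nm, emission 480 nm) measured after compounds at final 1, 5, 10, 25 and 50 μM acted 2 h at 37 degrees on preformed aggregates. Those aggregates came from 24 h rotating incubation of 25 μM Abeta1-42, 50 μM ZnCl2 and 50 μM ThT in PBS pH 6.6.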

| SMILES | Mice plasma concentration [1] | Toxicity at 30 mg/kg [2] | CuTy % inhibition of dityrosine oligomerization [3] | Cytotox (% viable) M17 cells at 1 μM [4] [%] | Cytotox (% viable) M17 cells at 10 μM [4] [%] | IC50 (Aβ 1-42) [µM] | Tg Mice % difference from control in Amyloid plaque abundance (Aβ deposits) [%] | Tg Mice % difference from control in insoluble brain amyloid burden (Aβ deposits) [%] | Tg Mice % difference from control in soluble brain amyloid burden (Aβ deposits) [%] | Cytotox (% viable) Neuronal cells at 1 μM [5] [%] | Cytotox (% viable) Neuronal cells at 10 μM [5] [%] | Disaggregation % Aggregate reduction at 5 μM ([6]; 5 μM test compound) [%] | EC50 ([6]; Abeta:Zn 25:50 μM aggregates) [µM] |
| --- | --- | --- | --- | --- | --- | --- | --- | --- | --- | --- | --- | --- | --- |
| O=c1c2c(Cl)cc(Cl)c(O)c2ncn1Cc1nccs1 [PB 1254] | Up tp 441.4 ng/ mL ng/mL | 10 days, none | CuTy: 90% inhibition | 106.6 | 106 | 0.25 | – | – | – | – | – | – | – |
| O=c1c2c(Cl)cc(Cl)c(O)c2ncn1CC1CC1 [PB-1076] | Up to 2698 ng/ mL in mice ng/mL | 11 days, none | 100% inhibit | 96.2 | 76.8 | – | −29 | −26 | −37 | 116 | 105 | 15.1 | > 20 |
| O=c1c2c(Cl)cc(Cl)c(O)c2ncn1-c1ccccn1 [PB 1242] | Up to 144.2 ng/ mL ng/mL | 10 days, none | CuTy: 50% inhibition | 102.7 | 102.6 | 0.28 | – | – | – | – | – | – | – |
| O=c1c2c(Cl)cc(Cl)c(O)c2ncn1Cc1ccncc1 [PB 1241] | Up to 2181.1 ng/mL | 10 days, none | CuTy: 80% inhibition | 105.4 | 90.4 | 0.44 | – | – | – | 98.4 | 90.9 | – | – |
| O=c1c2c(Cl)cc(Cl)c(O)c2ncn1Cc1nc2ccccc2s1 [PB 1257] | Up to 166.1 ng/ mL ng/mL | 10 days, none | CuTy: 60% inhibition | 111.1 | 80.9 | 0.69 | – | – | – | – | – | – | – |
| O=c1c2c(Cl)cc(Cl)c(O)c2ncn1Cc1ccn2ccnc2c1 [PB 1252] | Up to 1465.4 ng/mL | 10 days, none | CuTy: 50% inhibition | 105.4 | 105.1 | 0.72 | – | – | – | 94.6 | 103.1 | – | – |
| Br.CN(C)Cc1nc2c(O)c(Cl)cc(Cl)c2c(=O)n1C [PB 1269] | Up to 492.1 ng/ml ng/mL | 10 days, 1/4 mild signs | CuTy: 110% inhibition | 109.3 | 114.7 | 0.28 | – | – | – | – | – | – | – |
| O=C(O)Cn1cnc2c(O)c(Cl)cc(Cl)c2c1=O [PB 1249] | Up to 4830.2 ng/ml ng/mL | 10 days, none | CuTy: 100% inhibition | 105 | 100.7 | 0.49 | – | – | – | – | – | – | – |
| O=c1c2c(Cl)cc(Cl)c(O)c2ncn1-c1ccc2[nH]ncc2c1 [PB 1246] | Up to 126 ng/ mL ng/mL | 10 days, none | CuTy: 120% inhibition | 104.3 | 73.5 | 0.31 | – | – | – | – | – | – | – |
| O=C(O)CCCn1cnc2c(O)c(Cl)cc(Cl)c2c1=O [PB 1255] | Up to 17008 ng/ mL ng/mL | 10 days, none | CuTy: 125% inhibition | 109.7 | 102.9 | 0.93 | – | – | – | 97.9 | 98.0 | – | – |
